Test results taken from patent US9637479B2, “Tartrate salt of 5-chloro-thiophene-2-carboxylic acid [(S)-2-[2-methyl-3-(2-oxo-pyrrolidin-1-yl)-benzenesulfonylamino]-3-(4-methyl-piperazin-1-yl)-3-oxo-propyl]amide” (SANOFI, priority 2013, dated 2017).
Where a name gives a salt, the structure may show the parent alone. Read-outs that look alike come from different tables or passages of the source.

What was measured:
Type in all cases: physicochemical
[1] = Physical properties: hygroscopicity, water uptake, behavior under saturated humidity; details: for Behavior under saturated humidity 80° C.: sodium and L-lactate: after 24 hours
[2] = Test of stability in the solid state (stress degradation, one week of storage); details: for Stress degradation conditions 80°/saturated humidity: one week of storage at 80° C. under saturated humidity; for Stress degradation conditions 80° C./dry: one week of storage at 80° C., stable = optically, chemically and physically
Experimental: The sodium, L-lactate and L-tartrate salts of the compound of formula (I) were analyzed after one week of storage, at: • 80° C. • 80° C. and under saturated humidity, […]

[3] = Test of solubility in different buffers
Experimental: The solubility of sodium, L-lactate and L-tartrate salts of the compound of formula (I) was analyzed in different buffers. The results are described in table below (solubility of the tested compound is expressed in mg/ml).

[4] = Test of stability in solution (strong oxidizing solution, H2O2 at 0.3%); proportion of main N-oxide impurity; details: room temperature
Experimental: The sodium, L-lactate and L-tartrate salts of the compound of formula (I) were analyzed after one week of storage in a strong oxidizing solution: the three compounds were maintained in a solution of H2O2 at 0.3%, at room temperature. After either 6 hours or one week, the proportion of the main N-oxide impurity of the compound of formula (I) [drawing 4] was measured.

[5] = 0.2M pH = 9 hydregenocarbonate buffer

| Hygroscopicity [1] | Water uptake 80% RH 25° C. [1] | Behavior under saturated humidity 80° C. [1] | Stress degradation conditions 80°/saturated humidity [2] | Stress degradation conditions 80° C./dry [2] | Solubility ([3]; 0.1M pH = 4 phosphate buffer) | Solubility ([3]; 0.1M pH = 6.5 phosphate buffer) | Solubility ([3]; 0.1M pH = 7.4 phosphate buffer) | Solubility ([3]; 0.1N HCl) | Solubility [3, 5] | Solubility ([3]; Purified water) | % of impurity (main N-oxide impurity) ([4]; after 1 week) | Solubility ([3]; 0.1N HCl, simulated gastric fluid, 0.1N HCl, read-out: Solubility) | Solubility ([3]; hydrogenocarbonate buffer, pH 9, aqueous buffer, 0.2M pH = 9 hydregenocarbonate buffer, read-out: Solubility) | Solubility ([3]; phosphate buffer, pH 4, aqueous buffer, 0.1M pH = 4 phosphate buffer, read-out: Solubility) | Solubility ([3]; phosphate buffer, pH 6.5, aqueous buffer, 0.1M pH = 6.5 phosphate buffer, read-out: Solubility) | Solubility ([3]; phosphate buffer, pH 7.4, aqueous buffer, 0.1M pH = 7.4 phosphate buffer, read-out: Solubility) | Solubility ([3]; purified water, water, Purified water, read-out: Solubility) | % of impurity (main N-oxide impurity) ([4]; after 6 hours) | Structure (SMILES) |
| --- | --- | --- | --- | --- | --- | --- | --- | --- | --- | --- | --- | --- | --- | --- | --- | --- | --- | --- | --- |
| Hygroscopic | 2.5% | Gel formation-amorphous | slight degradation | stable* | >10000 µg/mL | >10000 µg/mL | 9800 µg/mL | >10000 µg/mL | 8500 µg/mL | >10000 µg/mL | 6.9% after 1 week |  |  |  |  |  |  |  | Cc1c(N2CCCC2=O)cccc1S(=O)(=O)N[C@@H](CNC(=O)c1ccc(Cl)s1)C(=O)N1CCN(C)CC1 [L-lactate salt, 5-chloro-thiophene-2-carboxylic acid [(S)-2-[2-methyl-3-(2-oxo-pyrrolidin-1-yl)-benzenesulfonylamino]-3-(4-methyl-piperazin-1-yl)-3-oxo-propyl]amide] |
| Slightly | 0.9% | Stable 7 days | stable | stable* | >10000 µg/mL | >10000 µg/mL | >10000 µg/mL | >10000 µg/mL | 8300 µg/mL | >10000 µg/mL | 0.77% after 1 week |  |  |  |  |  |  |  | Cc1c(N2CCCC2=O)cccc1S(=O)(=O)N[C@@H](CNC(=O)c1ccc(Cl)s1)C(=O)N1CCN(C)CC1 [L-tartrate salt, 5-chloro-thiophene-2-carboxylic acid [(S)-2-[2-methyl-3-(2-oxo-pyrrolidin-1-yl)-benzenesulfonylamino]-3-(4-methyl-piperazin-1-yl)-3-oxo-propyl]amide] |
| Highly | 31.5% | Deliquescence | huge degradation | stable* |  |  |  |  |  |  |  | > 10000 µg/mL | > 10000 µg/mL | 8900 µg/mL | 6500 µg/mL | 6900 µg/mL | > 10000 µg/mL | 25.4% after 6 hours | Cc1c(N2CCCC2=O)cccc1S(=O)(=O)N[C@@H](CNC(=O)c1ccc(Cl)s1)C(=O)N1CCN(C)CC1 [Sodium salt, 5-chloro-thiophene-2-carboxylic acid [(S)-2-[2-methyl-3-(2-oxo-pyrrolidin-1-yl)-benzenesulfonylamino]-3-(4-methyl-piperazin-1-yl)-3-oxo-propyl]amide] |
